In article PMC11169275, “MAL2 reprograms lipid metabolism in intrahepatic cholangiocarcinoma via EGFR/SREBP-1 pathway based on single-cell RNA sequencing” (Cell Death & Disease, 2024) one finds Kd data, which are given here for one compound.

The target in the assay is T1, MAL2 (GFP-MAL2) (Homo sapiens, UniProt Q969L2).
T1 construct: GFP fusion (GFP-MAL2) transiently expressed in HEK293T, diluted cell lysate, not purified
The assay is described as follows: microscale thermophoresis, GFP-MAL2 in HEK293T lysate. Format: binding. The text has this: microscale thermophoresis, GFP-MAL2 in HEK293T lysate on MAL2 (GFP-MAL2) | only sarizotan could assemble with MAL2, with a dissociation constant (Kd)

SMILES strings stand for the structures.

T1 sequence (Q969L2 whole entry, the tested form may be a part): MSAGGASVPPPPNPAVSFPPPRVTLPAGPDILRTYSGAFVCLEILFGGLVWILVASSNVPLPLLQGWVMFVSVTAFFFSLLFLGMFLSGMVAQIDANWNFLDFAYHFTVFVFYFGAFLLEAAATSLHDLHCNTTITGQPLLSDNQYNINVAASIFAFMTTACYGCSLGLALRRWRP

For orientation: Kd means the free concentration of one partner at which half of the binding sites on the other are occupied at equilibrium, for simple one-to-one binding. Regarding `Fc1ccc(-c2cncc(CNC[C@H]3CCc4ccccc4O3)c2)cc1` [sarizotan], the dissociation constant (Kd) worked out at 36.1 µM.
